Target: T1, human MCP-1 receptor (Homo sapiens, UniProt P41597)
T1 construct: expressed in transfected cells; host or cells: CHO cells, transformant CHO(MCR); FERM BP-5446; IFO 50461
Test: Determination of inhibitory activity on MCP-1 receptor (125I-MCP-1 binding to CHO cells expressing human MCP-1 receptor)
Conditions: Test Compound 1 μM, 125I-human recombinant MCP-1 100 pM, room temperature 40 minutes
Procedure: According to a method described in Working Example 1 of JP-A-238688/1997, human MCP-1 receptor gene was prepared. Said gene was inserted to plasmid pMCR, which was introduced into CHO cell. The resultant transformant [CHO(MCR); FERM BP-5446; IFO 50461] was used for the following experiment.
On 96 well culture plate (Packard Instrument Company), 7×10^4 cell/well of CHO cells expressing human MCP-1 receptor were inoculated, and the cells were cultivated at 37° C., overnight. The medium was removed by means of suction. To the residue were added a buffer solution (D-MEM containing 0.5% BSA and 20 mM HEPES; pH7.4), Test Compound (1 μM) and ^125I-human recombinant MCP-1 (Amersham; final concentration: 100 pM), and the mixture was allowed to react at room temperature for 40 minutes. The buffer solution was removed by means of suction and washed twice with PBS. To the residue was added MICROSCINT-20 (Packard Instrument Company), radioactivity of ^125I (cpm) was determined with Topcount (Packard).
The count number (cpm) (non-specific binding) of ^125I which binds to CHO cells (mock) having a vector was taken from the count number (cpm) of ^125I which binds to CHO cells expressing human MCP-1 receptor to obtain the amended count number, which was converted into 100%, and inhibition rate of Test Compound (whose number is referred to in the following Examples) against MCP-1 binding to its receptor was calculated.

T1 sequence (P41597 whole entry): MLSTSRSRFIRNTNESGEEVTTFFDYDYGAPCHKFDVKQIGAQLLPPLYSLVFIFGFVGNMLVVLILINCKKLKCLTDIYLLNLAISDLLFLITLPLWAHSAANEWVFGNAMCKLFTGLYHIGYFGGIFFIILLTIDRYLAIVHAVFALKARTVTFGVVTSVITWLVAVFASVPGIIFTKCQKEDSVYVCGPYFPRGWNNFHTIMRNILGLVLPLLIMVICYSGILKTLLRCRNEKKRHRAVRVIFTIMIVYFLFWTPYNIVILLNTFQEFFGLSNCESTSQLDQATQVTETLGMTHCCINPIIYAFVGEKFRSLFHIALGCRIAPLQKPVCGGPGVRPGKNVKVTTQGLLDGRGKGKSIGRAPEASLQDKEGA

Row | Compound | Inhibition Rate (%) against MCP-1 binding to its receptor [%]
1 | Cc1ccc(-c2ccc3c(c2)C=C(C(=O)Nc2ccc(C[N+]4(C)CCCCC4)cc2)CC3)cc1 [Compound 16, 1-methyl-1-[4-[7—(4-methylphenyl)-3,4-dihydronaphthalene-2-carboxamido]benzyl]piperidinium iodide] | 89
2 | Cc1ccc(-c2cccc(/C=C/C(=O)Nc3ccc(C[N+]4(C)CCCCC4)cc3)c2)cc1 [Compound 72, (E)-1-methyl-1-[4—(3—(4-methylphenyl)cinnamamido)benzyl]-piperidinium iodide] | 77
3 | Cc1ccc(-c2ccc3c(c2)C=C(C(=O)Nc2ccc(C[N+]4(C)CCCCC4)cc2)CCS3)cc1 [Compound 94, 1—(N-(7—(4-methylphenyl)-2,3-dihydro-1-benzo-thiepine-4-carbonyl)-4-aminobenzyl)-1-methyl-piperidinium iodide] | 92
4 | Cc1ccc(-c2ccc3c(c2)C=C(C(=O)Nc2ccc(C[N+]4(C)CCCCC4)cc2)CCO3)cc1 [Compound 97, 1—(N-(7—(4-methylphenyl)-2,3-dihydro-1-benzoxepin-4-carbonyl)-4-aminobenzyl)-1-methylpiperidinium chloride] | 96
5 | Cc1ccc(-c2ccc3c(c2)C=C(C(=O)Nc2ccc(CN(C)C4CCOCC4)cc2)CCO3)cc1 [Compound 128, N-(4—(N-methyl-(N-tetrahydropyran-4-yl)aminomethyl)phenyl)-7—(4-methylphenyl)-2,3-dihydro-1-benzoxepine-4-carboxamide] | 80
6 | CN(Cc1ccc(NC(=O)C2=Cc3cc(-c4ccc(N5CCCCC5)cc4)ccc3OCC2)cc1)C1CCOCC1 [Compound 151] | 80
7 | CCc1ccc(-c2ccc3c(c2)C=C(C(=O)Nc2ccc(CP4(=O)CCCCC4)cc2)CCO3)cc1 [Compound 178, N-(4—(pentamethylene)-phosphorylmethylphenyl)-7—(4-ethylphenyl)-2,3-dihydro-1-benzoxepine-4-carboxamide] | 64
8 | Cc1ccc(-c2ccc3c(c2)C=C(C(=O)Nc2ccc(C[N+](C)(C)C4CCOCC4)cc2)CCC3)cc1 [Compound 220, N,N-dimethyl-N-(4—((2—(4-methylphenyl)-6,7-dihydro-5H-benzocyclohepten-8-yl)carbonyl)aminobenzyl)-N-(4-tetrahydropyranyl)ammonium iodide] | 98

Test system: not given
Test: not given
Conditions: not given

Row | Compound | melting point [°C]
9 | Cc1ccc(-c2ccc3c(c2)C=C(C(=O)Nc2ccc(CN(C)C4CCOCC4)cc2)CCO3)cc1 [Compound 128, N-(4—(N-methyl-(N-tetrahydropyran-4-yl)aminomethyl)phenyl)-7—(4-methylphenyl)-2,3-dihydro-1-benzoxepine-4-carboxamide] | 162 to 163
10 | Cc1ccc(S(=O)(=O)N2CCC(c3cccc4c3CCCC(C(=O)Nc3ccc(CN(C)C5CCOCC5)cc3)=C4)CC2)cc1 [Compound 289, 4-[1-(4-methylphenylsulfonyl)piperidin-4-yl]-N-(4-(N-methyl-N-(tetrahydropyran-4-yl)aminomethyl]phenyl]-6,7-dihydro-5H-benzocycloheptene-8-carboxamide] | 175 to 176
11 | Cc1ccc(-c2ccc3c(c2)C=C(C(=O)Nc2ccc(CN(C)C4CCOCC4)cc2)CCO3)s1 [Compound 290, N-[4-[N-methyl-N-(tetrahydropyran-4-yl)amino-methyl]phenyl]-7-(5-methyl-2-thienyl)-2,3-dihydro-1-benzoxepine-4-carboxamide] | 129 to 130
12 | CN(Cc1ccc(NC(=O)C2=Cc3cc(-c4ccsc4)ccc3OCC2)cc1)C1CCOCC1 [Compound 291, N-[4-[N-methyl-N-(tetrahydropyran-4-yl)aminomethyl]phenyl]-7-(3-thienyl)-2,3-dihydro-1-benzoxepine-4-carboxamide] | 194 to 195
13 | Cc1csc(-c2ccc3c(c2)C=C(C(=O)Nc2ccc(CN(C)C4CCOCC4)cc2)CCO3)c1 [Compound 292, N-[4-[N-methyl-N-(tetra-hydropyran-4-yl)aminomethyl]phenyl]-7-(4-methyl-2-thienyl)-2,3-dihydro-1-benzoxepine-4-carboxamide] | 147 to 148
14 | CN1CCC(C(=O)Nc2ccc(CN(C)C3CCOCC3)cc2)=Cc2cc(-c3ccc(C(F)(F)F)cc3)ccc21 [Compound 308, 1-methyl-N-[4-[[N-methyl-N-(tetrahydropyran-4-yl)amino]-methyl]phenyl]-7-(4-trifluoromethylphenyl)-2,3-dihydro-1-benzoazepine-4-carboxamide] | 187.5 to 188.5
15 | COCCN(CCOC)Cc1ccc(NC(=O)C2=Cc3cc(-c4ccc(C)cc4)ccc3OCC2)cc1 [Compound 311, N-(4-((N,N-bis(2-methoxyethyl)amino)methyl)phenyl)-7-(4-methylphenyl)-2,3-dihydro-1-benzoxepine-4-carboxamide] | 110 to 112
16 | CCOCCCN(C)Cc1ccc(NC(=O)C2=Cc3cc(-c4ccc(C)cc4)ccc3OCC2)cc1 [Compound 312, N-(4-((N-(3-ethoxypropyl)-N-methylamino)methyl)phenyl)-7-(4-methylphenyl)-2,3-dihydro-1-benzoxepine-4-carboxamide] | 119 to 122
17 | COCC(COC)N(C)Cc1ccc(NC(=O)C2=Cc3cc(-c4ccc(C)cc4)ccc3OCC2)cc1 [Compound 313, N-(4-((N-(1,3-dimethoxypropan-2-yl)-N-methylamino)methyl)phenyl)-7-(4-methylphenyl)-2,3-dihydro-1-benzoxepine-4-carboxamide] | 128 to 132
18 | COCCN(C)Cc1ccc(NC(=O)C2=Cc3cc(-c4ccc(C)cc4)ccc3OCC2)cc1 [Compound 314, N-(4-((N-(2-methoxyethyl)-N-methylamino)methyl)phenyl)-7-(4-methylphenyl)-2,3-dihydro-1-benzoxepine-4-carboxamide] | 121 to 122
19 | CN1CCC(C(=O)Nc2ccc(CN(C)C3CCOCC3)cc2)=Cc2cc(-c3ccc(OC(F)(F)F)cc3)ccc21 [Compound 315, 1-methyl-N-[4-[[N-methyl-N-(tetrahydro-2H-pyran-4-yl)amino]methyl]phenyl]-7-(4-trifluoromethoxyphenyl)-2,3-dihydro-1-benzazepine-4-carboxamide] | 182 to 183
20 | CN1CCC(C(=O)Nc2ccc(CN(C)C3CCOCC3)cc2)=Cc2cc(-c3ccc(N4CCCCC4)cc3)ccc21 [Compound 316, 1-methyl-N-[4-[[N-methyl-N-(tetrahydro-2H-pyran-4-yl)amino]methyl]-phenyl]-7-[4-(1-piperidinyl)phenyl]-2,3-dihydro-1-benzazepine-4-carboxamide] | 202 to 204
21 | Cc1ccc(-c2ccc3c(c2)C=C(C(=O)Nc2ccc(CN(C)C4CCOCC4)cc2)CCN3C=O)cc1 [Compound 317, 1-formyl-7-(4-methylphenyl)-N-[4-[[N-methyl-N-(tetrahydro-2H-pyran-4-yl)amino]methyl]phenyl]-2,3-dihydro-1-benzazepine-4-carboxamide] | 229 to 230.5
22 | CCOCCCN(C)Cc1ccc(NC(=O)C2=Cc3cc(-c4ccc(OCC)cc4)ccc3N(C)CC2)cc1 [Compound 319, N-(4-((N-(3-ethoxypropyl)-N-methylamino)methyl)phenyl)-7-(4-ethoxyphenyl)-1-methyl-2,3-dihydro-1-benzazepine-4-carboxamide] | 129 to 131
23 | CCSc1ccc(-c2ccc3c(c2)C=C(C(=O)Nc2ccc(CN(C)C4CCOCC4)cc2)CCN3C)cc1 [Compound 320, 7-(4-ethylthiophenyl)-1-methyl-N-[4-[[N-methyl-N-(tetrahydro-2H-pyran-4-yl)amino]methyl]phenyl]-2,3-dihydro-1-benzazepine-4-carboxamide] | 139 to 141
24 | Cc1ccc(-c2ccc3c(c2)C=C(C(=O)Nc2ccc(CN(C)C4CCOCC4)cc2)CCN3S(=O)(=O)C(F)(F)F)cc1 [Compound 321, 7-(4-methylphenyl)-N-[4-[[N-methyl-N-(tetrahydro-2H-pyran-4-yl)amino]methyl]-phenyl]-1-[(trifluoromethyl)sulfonyl]-2,3-dihydro-1-benzazepine-4-carboxamide] | 185 to 187
25 | Cc1ccc(-c2ccc3c(c2)C=C(C(=O)Nc2ccc(CNc4ccccn4)cc2)CCO3)cc1 [Compound 322, N-[4-[(pyrid-2-yl)aminomethyl]phenyl]-7-(4-methylphenyl)-2,3-dihydro-1-benzoxepine-4-carboxamide] | 189 to 190
26 | Cc1ccc(-c2ccc3c(c2)C=C(C(=O)Nc2ccc(CP4(=O)OCCCO4)cc2)CCO3)cc1 [Ref Ex 51, 2—(4—(7—(4-methylphenyl)-2,3-dihydro-1-benzoxepin-4-carbonylamino)benzyl)-1,3,2-dioxaphosphorinane-2-oxide] | 268 to 269
